“And” between values parts separate entries of the source, which are not always exact repeats. Equal entries are not always repeated. The source made the active and inactive calls. No rule for the calls is given here.
molecular target: Perilipin-5 (Homo sapiens) + 1-acylglycerol-3-phosphate O-acyltransferase ABHD5 (Homo sapiens) (UniProt Q00G26+Q8WTS1); experiment: blockers of ABHD5 binding to perilipin-5 – cell lysate, luminescence, proteins expressed in HEK293T, late-stage follow-up (AID 651759); details: ABHD5-PLIN5 interaction
Sequence (Q00G26 whole entry, looked up): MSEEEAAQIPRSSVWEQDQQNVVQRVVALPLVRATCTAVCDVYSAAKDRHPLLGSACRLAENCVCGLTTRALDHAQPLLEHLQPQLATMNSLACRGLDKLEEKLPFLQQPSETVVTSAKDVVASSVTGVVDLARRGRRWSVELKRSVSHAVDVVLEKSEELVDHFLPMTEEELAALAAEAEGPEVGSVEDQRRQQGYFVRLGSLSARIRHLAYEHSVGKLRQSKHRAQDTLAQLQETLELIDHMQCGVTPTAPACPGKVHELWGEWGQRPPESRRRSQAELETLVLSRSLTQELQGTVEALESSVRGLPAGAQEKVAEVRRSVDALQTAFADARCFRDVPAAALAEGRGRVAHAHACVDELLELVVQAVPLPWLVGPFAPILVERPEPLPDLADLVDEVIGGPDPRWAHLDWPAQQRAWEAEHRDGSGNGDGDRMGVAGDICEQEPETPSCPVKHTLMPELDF
Sequence (Q8WTS1 whole entry, looked up): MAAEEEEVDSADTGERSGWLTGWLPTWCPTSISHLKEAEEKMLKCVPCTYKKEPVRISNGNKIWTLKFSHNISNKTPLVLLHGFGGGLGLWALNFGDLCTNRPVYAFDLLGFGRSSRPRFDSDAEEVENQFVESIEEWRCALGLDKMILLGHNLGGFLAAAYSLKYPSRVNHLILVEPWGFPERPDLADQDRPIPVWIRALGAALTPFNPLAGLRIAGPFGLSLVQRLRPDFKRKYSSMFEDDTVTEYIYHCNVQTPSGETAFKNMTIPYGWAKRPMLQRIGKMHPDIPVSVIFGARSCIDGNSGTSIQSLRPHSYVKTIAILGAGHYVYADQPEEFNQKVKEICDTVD

IC50, active:
CCOC(=O)c1c(NC(=O)/C=C/C(=O)O)sc(C)c1-c1ccc(C(C)(C)C)cc1 4.5 µM, CC(=O)Cc1cc(O)c2ccccc2c1OC(=O)c1ccc(Br)cc1 4.75 µM, CCCCOC(=O)Nc1cc(C(=O)OC)ccc1C(=O)OC 3.7 µM, CCCNC(=O)Nc1ccc2c(c1)N(C)C(=O)c1ccccc1S2 5.58 µM, CC1CCN(S(=O)(=O)c2ccc(NC(=O)Cc3ccccc3)cc2)CC1 7.89 µM, CC(=O)Cc1cc(O)c2ccccc2c1OC(=O)c1ccccc1 3.56 µM, CCN(CC)CCN(CC(=O)Nc1c(C)cc(C)cc1C)C(=O)c1ccccc1 2.85 µM, O=C(/C(=C/O)N=Nc1ccc(Cl)cc1)c1ccncc1 6.19 µM, CCOc1cc(N)c(Cl)cc1C(=O)NCC1CN(Cc2ccc(F)cc2)CCO1 (stereo unspecified) 1.29 µM, CCN(CC)CCOCCOC(=O)C1(c2ccccc2)CCCC1 1.26 µM, Cc1nc2c(o1)CCc1ccccc1C2N1CCN(C)CC1 (stereo unspecified) 2.25 µM, Cc1ccc2nc3cc([N+](=O)[O-])cc([N+](=O)[O-])c3cc2c1 1.44 µM, Cc1cc(C)c(NC(=O)CN2CCN3CCCC3C2)c(C)c1 (stereo unspecified) 7.06 µM, O=c1[nH]c(C2CCN(S(=O)(=O)c3ccc(S(=O)(=O)NC4CC4)cc3)CC2)nc2c1nnn2Cc1ccc(F)cc1 1.33 µM, CCOC(=O)c1c(NC(C)=O)sc2c1CCC(C=O)=C2Sc1ccccc1 2.25 µM, CC1=CC(C)(C)Nc2ccc(OC(=O)C(C)N3C(=O)c4ccccc4C3=O)cc21 (stereo unspecified) 4.25 µM, Cc1ccc2c(CC(=O)N3CCN(S(=O)(=O)c4ccc5c(c4)OCCO5)CC3)coc2c1 2.97 µM and 5.73 µM, C=C[C@]1(C)C[C@@H](OC(=O)CSCCN(CC)CC)[C@]2(C)C(C)CC[C@]3(CCC(=O)[C@H]32)[C@@H](C)[C@@H]1O (stereo partly specified) 4.45 µM, Cc1cc(C)c2nc(NNC(=O)c3ccc(S(=O)(=O)N4CCCC(C)C4)cc3)sc2c1 (stereo unspecified) 3.89 µM, COc1cc(OC)cc(C(=O)NC(=S)N(Cc2ccccc2)C(C)C)c1 2.15 µM, NC(=NCCCCCCN=C(N)/N=C(\N)Nc1ccc(Cl)cc1)/N=C(\N)Nc1ccc(Cl)cc1 6.22 µM and 6.86 µM, CCN(CC)CCOc1ccc(/C(=C(/Cl)c2ccccc2)c2ccccc2)cc1 1.32 µM, CC1Sc2ccc(S(=O)(=O)N3CCC(C(=O)NCc4ccc(Cl)cc4)CC3)cc2NC1=O (stereo unspecified) 8.86 µM, COc1cc2c(cc1OC)C(C)N(CCc1ccc(Cl)cc1)CC2 (stereo unspecified) 9.34 µM, Cc1cc(C)c(NC(=O)C[N+](C)(C)CC(O)COc2cccc3ccccc23)c(C)c1 (stereo unspecified) 9.14 µM, CCN(CC)CCC(C)OC(c1ccccc1)c1ccccc1 (stereo unspecified) 1.38 µM, CC(C)c1ccc(N2C=Nc3ccc(C(C)C)cc3C2)cc1 1 µM, CC1CCN(S(=O)(=O)c2ccc(NC(=O)Cc3cccs3)cc2)CC1 9 µM, CC(CCc1ccco1)NC(=O)CCc1nnc2ccc(NCc3ccccc3Cl)nn12 (stereo unspecified) 2.89 µM, CCCCNC(=O)Nc1ccc2c(c1)N(C)C(=O)c1ccccc1S2 3.12 µM

IC50, inactive:
COc1ccc(C)c2sc(N(CCN(C)C)C(=O)/C=C/c3cccs3)nc12, COc1ccc(NC(=S)N(CCCN2CCCC2)Cc2cccn2Cc2ccc(Cl)cc2)cc1Cl, CC(=O)Nc1ccc(S(=O)(=O)N2c3ccc(F)cc3CCC2C)cc1 (stereo unspecified), CN(C)CCCN(C(=O)CCc1ccccc1)c1nc2ccc(Br)cc2s1, FC(F)(F)c1cccc(NC(=S)N(CCCN2CCCC2)Cc2cccn2Cc2ccc(Cl)cc2)c1, COCCN(CCOC)c1nc(N)c2c(N)nc3c(c2c1C#N)CC(=O)N3Cc1ccc(Cl)cc1 > 39.8 µM, COc1cc(C)c2sc3ccccc3c(=O)c2c1NCCN(C)C > 39.8 µM, CN(C)CCN(Cc1ccco1)c1ccccn1 > 39.8 µM, CN1CCC(=C2c3ccccc3CC(=O)c3sccc32)CC1 > 39.8 µM, COc1ccccc1-c1cc(C(=O)NC2CCN(C)CC2)c2ccc(Cl)c(C)c2n1 > 13.3 µM, CN(C)CCOC1(Cc2ccc(F)cc2)CCC(C(C)(C)C)CC1 (stereo unspecified) > 39.8 µM, CC(=O)Oc1ccc(C23c4ccccc4C2(OC(C)=O)c2cc(OC(C)=O)ccc23)cc1 (stereo unspecified) > 39.8 µM, CN(C)CCCN(C(=O)CCc1ccccc1)c1nc2ccc(Cl)cc2s1, CCN(CC)CCNC(=O)c1ccc(NC(=O)c2cn(-c3ccccc3)nc2-c2cccs2)cc1, O=c1[nH]c(C2CCN(S(=O)(=O)c3ccc(F)cc3)CC2)nc2c1nnn2Cc1ccc2c(c1)OCCO2, O=C(C[n+]1cccc(CNC(=O)c2ccc(OC(F)F)cc2)c1)Nc1cccc(C(F)(F)F)c1 > 39.8 µM
